Tests used:
[1] = non-leukemic hematologic malignancies; cited from earlier work
[2] = system: PA0165 pancreatic xenograft; test: Pancreatic xenograft PA0165, Compound A and Romidepsin; format: in vivo, NSG mice
Protocol: 3/4 is 3 days on and 4 days off; Q4D is once every 4 days; Q7D is once every 7 days; —— Control; - - - - Compound A 25 mg/kg, 3/4; - —— - —— Romidepsin 1.5 mg/kg Q4D×3; —— —— Compound A 25 mg/kg. 3/4 combined with Romidepsin 1.5 mg/kg Q7D; - - - Compound A 25 mg/kg, 3/4 combined with Romidepsin 0.75 mg/kg Q7D. Tumor volumes were plotted as mean±standard error of the mean (SEM).
3/4 is 3 days on and 4 days off; Q4D is once every 4 days. —— Control; - - - - Compound A at 25 mg/kg, 3/4; - —— - —— Romidepsin 1.5 mg/kg Q4D×3; —— —— Compound A 25 mg/kg, 3/4 combined with Romidepsin 1.5 mg/kg Q7D; - - - Compound A 25 mg/kg, 3/4 combined with Romidepsin 0.75 mg/kg Q7D.
Cohorts of 4-6 wk-old NSG mice bearing PA0165 were treated with Romidepsin at 1.5 mg/kg intravenous (IV)×3 Q4D; Compound A 25 mg/kg orally QD 3 days on then 4 days off; or with a combination of Compound A 25 mg/kg orally QD 3 days on then 4 days off and Romidepsin at 1.5 or 0.75 mg/kg IV Q7D. The treatment lasted 21 days.

locally advanced BCC = conditions: cited from earlier work
basal cell carcinoma = conditions: BCC; cited from earlier work

## Cc1sc2c(c1C)C(c1ccc(Cl)cc1)=N[C@@H](CC(=O)Nc1ccc(O)cc1)c1nnc(C)n1-2 [OTX015]
[1]
  patients with Grade 3 hyperglycemia: 1 patient

## C/C=C1\NC(=O)[C@H]2CSSCC/C=C/[C@H](CC(=O)N[C@H](C(C)C)C(=O)N2)OC(=O)[C@H](C(C)C)NC1=O [Romidepsin, (1S,4S,7Z,10S,16E,21R)-7-ethylidene4,21-diisopropyl-2-oxa-12,13-dithia-5,8,20,23-tetrazabicyclo[8.7.6]tricos-16-ene-3,6,9,19,22pentone, reference compound]
[2]; Romidepsin 1.5 mg/kg IV ×3 Q4D alone, 21 days
  TGI: 45%
[2]; day 30, Romidepsin only group
  survival rate: about 10%

## Cc1c(C(=O)Nc2ccc(N3C[C@@H](C)O[C@@H](C)C3)nc2)cccc1-c1ccc(OC(F)(F)F)cc1 [sonidegib]
Locally advanced BCC
  investigator-assessed responses lasting at least six months: 60%

## CS(=O)(=O)c1ccc(C(=O)Nc2ccc(Cl)c(-c3ccccn3)c2)c(Cl)c1 [vismodegib]
Basal cell carcinoma
  median duration of response: 7.6 months

— US11464771B2, “Bromodomain and extra-terminal protein inhibitor combination therapy” (CELGENE QUANTICEL RESEARCH, INC., priority 2016, dated 2022)
